Measurements taken from PMC6605100 (Peptide science (Hoboken, N.J.), 2018).

Experiments:
[1] = Peptide degradation assay in HeLa lysates, RP-HPLC; details: 30 μM peptide, HeLa lysates 2 mg/mL, 10 mM Tris-HCl pH 7.6, 37°C, HPLC UV 442 nm

Row | Molecule | time within which the peptide was mostly degraded [1] [min] | entry into intact cells (permeability) (HeLa cells)
1 | N=C(N)NCCC[C@H](NC(=O)[C@H](CCCNC(=N)N)NC(=O)[C@H](CCCNC(=N)N)NC(=O)[C@H](CCC(N)=O)NC(=O)[C@H](CCCNC(=N)N)NC(=O)[C@H](CCCNC(=N)N)NC(=O)[C@H](CCCCN)NC(=O)[C@H](CCCCN)NC(=O)[C@H](CCCNC(=N)N)NC(=O)CNC(=O)[C@H](Cc1ccc(O)cc1)NC(=O)c1ccc2c(c1)C(=O)OC21c2ccc(O)cc2Oc2cc(O)ccc21)C(N)=O [TAT] | ≤ 30 | –
2 | Ac-RWVKVpGOWIKQ-NH2 [WKWK] | – | found to enter intact HeLa cells
